Measured values as given in PubChem BioAssay AID212 (DTP/NCI, 2004).
Values joined by “and” are separate entries in the source; they are usually repeats but may differ in a detail not shown here. Equal values may be shown once. Results filed as inconclusive are left out.

Test system: BDF1 mice, colon carcinoma 38 sc, T/C %
Experiment: NCI In Vivo Anticancer Drug Screen. Data for tumor model Colon Carcinoma 38 (subcutaneous) in B6D2F1 (BDF1) mice
Settings: endpoint: median tumor weight (est.), higher = larger tumour
Procedure, shortened: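 Transplantable tumor in mice; compound-treated vs vehicle-dosed controls. Measured survival or tumor size; value = T ÷ C.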

[1] = dose: 25.0 mg/kg/injection, schedule: Q07DX002 (ip), vehicle: Klucel (hydroxypropylcellulose) (HPC)
[2] = dose: 50.0 mg/kg/injection, schedule: Q07DX002 (ip), vehicle: Klucel (hydroxypropylcellulose) (HPC)
[3] = dose: 100.0 mg/kg/injection, schedule: Q07DX002 (ip), vehicle: saline
[4] = dose: 100.0 mg/kg/injection, schedule: Q07DX002 (ip), vehicle: suspension in saline
[5] = dose: 200.0 mg/kg/injection, schedule: Q07DX002 (ip), vehicle: saline
[6] = dose: 200.0 mg/kg/injection, schedule: Q07DX002 (ip), vehicle: suspension in saline
[7] = dose: 400.0 mg/kg/injection, schedule: Q07DX002 (ip), vehicle: suspension in saline
[8] = dose: 800.0 mg/kg/injection, schedule: Q07DX002 (ip), vehicle: saline
[9] = dose: 100.0 mg/kg/injection, schedule: Q07DX002 (ip), vehicle: Klucel (hydroxypropylcellulose) (HPC)
[10] = dose: 400.0 mg/kg/injection, schedule: Q07DX002 (ip), vehicle: Klucel (hydroxypropylcellulose) (HPC)
[11] = dose: 200.0 mg/kg/injection, schedule: Q07DX002 (ip), vehicle: Klucel (hydroxypropylcellulose) (HPC)

Structure (SMILES): COC(C(=O)C(O)C(C)O)C1Cc2cc3cc(OC4CC(OC(C)=O)C(OC5CC(O)C(OC)C(C)O5)C(C)O4)cc(O)c3c(O)c2C(=O)C1OC1CC(OC2CC(OC3CC(C)(O)C(OC(=O)C(C)C)C(C)O3)C(O)C(C)O2)C(O)C(C)O1 (stereo not drawn)
- T/C (dose: 0.12 mg/kg/injection, schedule: Q07DX002 (ip), vehicle: saline with Tween-80): 113 % of control
- T/C (dose: 0.25 mg/kg/injection, schedule: Q07DX002 (ip), vehicle: saline): 81 % of control
- T/C (dose: 0.5 mg/kg/injection, schedule: Q07DX002 (ip), vehicle: saline with Tween-80): 113 % of control
- T/C (dose: 0.5 mg/kg/injection, schedule: Q07DX002 (ip), vehicle: saline): 78 % of control
- T/C (dose: 1.0 mg/kg/injection, schedule: Q07DX002 (ip), vehicle: saline with Tween-80): 59 % of control
- T/C (dose: 1.0 mg/kg/injection, schedule: Q07DX002 (ip), vehicle: saline): 89 % of control
- T/C (dose: 2.0 mg/kg/injection, schedule: Q07DX002 (ip), vehicle: saline with Tween-80): 55 % of control
- T/C (dose: 2.0 mg/kg/injection, schedule: Q07DX002 (ip), vehicle: saline): 124 % of control
- T/C (dose: 4.0 mg/kg/injection, schedule: Q07DX002 (ip), vehicle: saline with Tween-80): 48 % of control
- T/C (dose: 4.0 mg/kg/injection, schedule: Q07DX002 (ip), vehicle: saline): 92 % of control

Structure (SMILES): COc1ccc2[nH]c3c(c2c1)CCNC3CC(C)CCC=C(C)C (stereo not drawn)
- T/C (dose: 12.5 mg/kg/injection, schedule: Q07DX002 (ip), vehicle: Klucel (hydroxypropylcellulose) (HPC)): 88 % of control and 97 % of control
- T/C [1]: 82 % of control
- T/C [2]: 57 % of control

Structure (SMILES): c1ccc2c(c1)[As]=c1ccccc1=[As]2 (stereo not drawn)
- T/C (dose: 3.0 mg/kg/injection, schedule: Q07DX002 (ip), vehicle: saline): 124 % of control

Structure (SMILES): Nc1cccc(=O)[nH]1
- T/C (dose: 25.0 mg/kg/injection, schedule: Q07DX002 (ip), vehicle: suspension in saline): 116 % of control
- T/C (dose: 50.0 mg/kg/injection, schedule: Q07DX002 (ip), vehicle: saline): 92 % of control
- T/C (dose: 50.0 mg/kg/injection, schedule: Q07DX002 (ip), vehicle: suspension in saline): 66 % of control
- T/C [3]: 113 % of control
- T/C [4]: 87 % of control
- T/C [5]: 94 % of control
- T/C [6]: 77 % of control
- T/C (dose: 400.0 mg/kg/injection, schedule: Q07DX002 (ip), vehicle: saline): 91 % of control
- T/C [7]: 74 % of control
- T/C [8]: 95 % of control

Structure (SMILES): CCCC(=O)OC1C=C2N3C(=O)C4CC56C(=CC(OC(C)=O)C7OC75)N4C(=O)C3CC26C2OC12 (stereo not drawn)
- T/C (dose: 1.25 mg/kg/injection, schedule: Q07DX002 (ip), vehicle: Klucel (hydroxypropylcellulose) (HPC)): 111 % of control
- T/C (dose: 2.5 mg/kg/injection, schedule: Q07DX002 (ip), vehicle: Klucel (hydroxypropylcellulose) (HPC)): 92 % of control
- T/C (dose: 5.0 mg/kg/injection, schedule: Q07DX002 (ip), vehicle: Klucel (hydroxypropylcellulose) (HPC)): 102 % of control
- T/C (dose: 10.0 mg/kg/injection, schedule: Q07DX002 (ip), vehicle: Klucel (hydroxypropylcellulose) (HPC)): 76 % of control

Structure (SMILES): N=c1nc2n(cc1F)[C@@H]1O[C@H](CO)[C@@H](O)[C@@H]1O2
- T/C [3]: 118 % of control
- T/C [4]: 117 % of control
- T/C [5]: 193 % of control
- T/C [6]: 93 % of control
- T/C [7]: 99 % of control
- T/C [8]: 102 % of control
- T/C (dose: 1600.0 mg/kg/injection, schedule: Q07DX002 (ip), vehicle: saline): 53 % of control
- T/C (dose: 1600.0 mg/kg/injection, schedule: Q07DX002 (ip), vehicle: suspension in saline): 40 % of control

Structure (SMILES): CN1c2c(nc(N)[nH]c2=O)NCC1CCNc1ccc(C(=O)NC(CCC(=O)O)C(=O)O)cc1 (stereo not drawn)
- T/C (dose: 50.0 mg/kg/injection, schedule: Q07DX003 (ip), vehicle: saline): 155 % of control
- T/C (dose: 100.0 mg/kg/injection, schedule: Q07DX003 (ip), vehicle: saline): 64 % of control
- T/C (dose: 200.0 mg/kg/injection, schedule: Q07DX003 (ip), vehicle: saline): 99 % of control
- T/C (dose: 400.0 mg/kg/injection, schedule: Q07DX003 (ip), vehicle: saline): 98 % of control
- T/C (dose: 800.0 mg/kg/injection, schedule: Q07DX003 (ip), vehicle: saline): 92 % of control

Structure (SMILES): N/C(=N\OC(=O)Nc1ccc(CSc2ccc(Cl)cc2)o1)c1ccccn1
- T/C [1]: 89 % of control
- T/C [2]: 75 % of control
- T/C [9]: 90 % of control

Structure (SMILES): CC(O)CCC(=O)c1ccoc1 (stereo not drawn)
- T/C (dose: 0.63 mg/kg/injection, schedule: Q07DX002 (ip), vehicle: saline): 150 % of control
- T/C (dose: 1.25 mg/kg/injection, schedule: Q03HX006 (ip), vehicle: saline): 42 % of control
- T/C (dose: 2.5 mg/kg/injection, schedule: Q03HX006 (ip), vehicle: saline): 64 % of control
- T/C (dose: 2.5 mg/kg/injection, schedule: Q07DX002 (ip), vehicle: saline): 166 % of control
- T/C (dose: 5.0 mg/kg/injection, schedule: Q03HX006 (ip), vehicle: saline): 58 % of control
- T/C (dose: 5.0 mg/kg/injection, schedule: Q07DX002 (ip), vehicle: saline): 150 % of control
- T/C (dose: 10.0 mg/kg/injection, schedule: Q07DX002 (ip), vehicle: saline): 185 % of control

Structure (SMILES): CC1=C/C(O)CC(=O)Cc2nc(co2)C(=O)N2CCC=C2C(=O)OC(C(C)C)C(C)/C=C\C(=O)NC/C=C\1 (stereo not drawn)
- T/C [2]: 109 % of control
- T/C [10]: 102 % of control
- T/C (dose: 800.0 mg/kg/injection, schedule: Q07DX002 (ip), vehicle: Klucel (hydroxypropylcellulose) (HPC)): 117 % of control

Structure (SMILES): CCN1C=C/C(=C\C=C/c2cc[n+](CC)c3ccccc23)c2ccccc21
- T/C (dose: 0.06 mg/kg/injection, schedule: Q07DX002 (ip), vehicle: saline): 91 % of control
- T/C (dose: 0.12 mg/kg/injection, schedule: Q07DX002 (ip), vehicle: saline): 120 % of control
- T/C (dose: 62.0 micrograms/kg/injection, schedule: Q07DX002 (ip), vehicle: saline): 101 % of control
- T/C (dose: 125.0 micrograms/kg/injection, schedule: Q07DX002 (ip), vehicle: saline): 123 % of control
- T/C (dose: 250.0 micrograms/kg/injection, schedule: Q07DX002 (ip), vehicle: saline): 156 % of control

Structure (SMILES): CC(C)(O)/C=C/C(=O)[C@](C)(O)[C@H]1[C@H](O)C[C@@]2(C)[C@@H]3CC=C4[C@@H](C[C@H](O)C(=O)C4(C)C)[C@]3(C)C(=O)C[C@]12C
- T/C (dose: 0.25 mg/kg/injection, schedule: Q07DX002 (ip), vehicle: saline + Tween-80 + alcohol): 95 % of control
- T/C (dose: 0.5 mg/kg/injection, schedule: Q07DX002 (ip), vehicle: saline + Tween-80 + alcohol): 106 % of control
- T/C (dose: 1.0 mg/kg/injection, schedule: Q07DX002 (ip), vehicle: saline + Tween-80 + alcohol): 65 % of control

Structure (SMILES): O=C(O)CSc1c(Cl)c(=O)oc2ccc(Cl)cc12
- T/C [1]: 93 % of control
- T/C [2]: 113 % of control
- T/C [9]: 81 % of control
- T/C [11]: 120 % of control

Structure (SMILES): Cc1cc2c(C(C)C)c(O)c(O)c(C=O)c2c(O)c1-c1c(C)cc2c(C(C)C)c(O)c(O)c(C=O)c2c1O
- T/C (dose: 1.5 mg/kg/injection, schedule: Q07DX002 (ip), vehicle: saline with Tween-80): 117 % of control
- T/C (dose: 3.0 mg/kg/injection, schedule: Q07DX002 (ip), vehicle: saline with Tween-80): 97 % of control
- T/C (dose: 6.0 mg/kg/injection, schedule: Q07DX002 (ip), vehicle: saline with Tween-80): 107 % of control
- T/C (dose: 12.0 mg/kg/injection, schedule: Q07DX002 (ip), vehicle: saline with Tween-80): 53 % of control
- T/C (dose: 24.0 mg/kg/injection, schedule: Q07DX002 (ip), vehicle: saline with Tween-80): 96 % of control

Structure (SMILES): O=S1(=O)C=C(c2ccccc2)C(c2ccccc2)=C1
- T/C (dose: 6.25 mg/kg/injection, schedule: Q07DX002 (ip), vehicle: saline with Tween-80): 112 % of control and 97 % of control
- T/C (dose: 50.0 mg/kg/injection, schedule: Q07DX002 (ip), vehicle: saline with Tween-80): 62 % of control and 80 % of control
- T/C (dose: 100.0 mg/kg/injection, schedule: Q07DX002 (ip), vehicle: saline with Tween-80): 84 % of control
- T/C (dose: 200.0 mg/kg/injection, schedule: Q07DX002 (ip), vehicle: saline with Tween-80): 88 % of control

Structure (SMILES): C[C@@H]1C[C@H]2[C@@H]3CCC4=CC(=O)C=C[C@]4(C)[C@@]3(F)[C@@H](O)C[C@]2(C)[C@@]1(O)C(=O)CO
- T/C (dose: 6.25 mg/kg/injection, schedule: Q07DX002 (ip), vehicle: Klucel (hydroxypropylcellulose) (HPC)): 156 % of control
- T/C [11]: 53 % of control and 58 % of control
- T/C [10]: 25 % of control
